Molecular target: T1, NleB1 (Escherichia coli, UniProt Q8XBX8)
T1 construct: GST-EHEC-NleB1 in pET42a (GST/His tagged), expressed in E. coli BL21 (DE3), nickel purified; some tag cleavage noted
Conditions: inhibitor; for % NleB1 inhibition (µM compound) / 10: 10 µM; for % NleB1 inhibition (µM compound) / 20: 20 µM; for % NleB1 inhibition (µM compound) / 40: 40 µM; for % NleB1 inhibition (µM compound) / 80: 80 µM; for % NleB1 inhibition (µM compound) / 160: 160 µM

Structure (SMILES)	% NleB1 inhibition (µM compound) / 10	% NleB1 inhibition (µM compound) / 20	% NleB1 inhibition (µM compound) / 40	% NleB1 inhibition (µM compound) / 80	% NleB1 inhibition (µM compound) / 160
O=c1cc(-c2ccccc2Cl)oc2c(NS(=O)(=O)c3cc(Cl)cc(Cl)c3O)ccc(O)c12 [KUC100066N]	43.0%	71.1%	84.8%	96.0%	96.8%
Cc1cccc(C(=O)N2CCC(=O)N([C@H](COCc3ccc(Cl)cc3)Cc3ccccc3)CC2)c1 [KUC100143N]	35.9%	38.0%	39.2%	42.0%	63.3%
O=C1CCN(S(=O)(=O)c2ccccc2)CCN1CCOCc1ccc(Cl)cc1 [KUC100988N]	31.9%	14.5%	26.3%	28.3%	36.0%
O=C1CN(Cc2ccccc2)S(=O)(=O)c2ccccc21 [KUC101184N]	2.9%	18.5%	23.8%	33.3%	44.7%
COc1ccc(C2CC(O)(c3ccccc3)Oc3c(C)ccc(C)c32)cc1 (centres unmarked) [KUC101437N]	10.8%	13.9%	23.3%	39.1%	57.3%
COc1ccc(C(CCN2CCOCC2)c2c(OC)cc(OC)c3c2OC(=O)CC3c2ccc(OC)cc2)cc1 (centres unmarked) [KUC101459N]	14.9%	26.2%	9.4%	18.8%	44.1%
CCCCCCC(=O)N1C/C=C\C(c2ccc(OC)cc2)N(Cc2ccc(F)cc2)C(=O)[C@@H]1Cc1ccccc1 (some centres unmarked) [KUC101608N]	15.6%	17.3%	23.2%	30.3%	32.5%
CCCCCCCCN1[C@@H](CC(=O)OC)c2cc(F)ccc2S1(=O)=O [KUC101907N]	23.0%	22.1%	22.4%	29.9%	42.2%
CCCCCCCCCCCCN1[C@@H](CC(=O)O)c2cc(C(F)(F)F)ccc2S1(=O)=O [KUC101994N]	40.6%	48.0%	60.1%	80.4%	94.3%
COc1cccc(N2[C@@H](CC(=O)O)c3ccc(/C=C/C(=O)O)cc3S2(=O)=O)c1 [KUC102262N]	27.6%	34.2%	35.9%	41.7%	46.5%

From PMC6305410, “High-Throughput Screening for Bacterial Glycosyltransferase Inhibitors” (Frontiers in Cellular and Infection Microbiology, 2018)
